Assay results taken from ChEMBL document CHEMBL1152024, “Synthesis and bronchospasmolytic properties of some pyridazinone derivatives” (1993).

What was measured:
Format in all cases: functional
Cavia porcellus [1] = species on record: Cavia porcellus; assay: Tested in vitro for its effect on tracheal relaxation in guinea pig trachea, activity expressed as percentage increase in the velocity of the flux of perfusion at concentration 30 ug/mL
Cavia porcellus [2] = species on record: Cavia porcellus; assay: Tested in vitro for its effect on tracheal relaxation in guinea pig trachea, activity expressed as pD2 (-log of molar concentration which gives a half maximal relaxing effect)
Cavia porcellus [3] = species on record: Cavia porcellus; assay: Tested in vitro for its effect on tracheal relaxation in guinea pig trachea, activity expressed as percentage increase in the velocity of the flux of perfusion at concentration 10 ug/mL

| SMILES | Increase (Cavia porcellus [1]) [%] | pD2 (Cavia porcellus [2]) | Increase (Cavia porcellus [3]) [%] |
| --- | --- | --- | --- |
| CC(=O)Nc1ccc(C(O)CN2CCN(CCn3nc(Cl)ccc3=O)CC2)cc1Cl (configuration not stated) | 4 | – | – |
| O=c1ccc(Cl)nn1CCN1CCN(CC(O)c2ccc(Cl)c(Cl)c2)CC1 (configuration not stated) | 46 | – | – |
| Nc1c(Cl)cc(C(O)CN2CCN(c3ccc(O)nn3)CC2)cc1Cl (configuration not stated) | 54 | – | – |
| Oc1ccc(N2CCN(CC(O)c3ccc(Cl)c(Cl)c3)CC2)nn1 (configuration not stated) | 87 | 4.79 | – |
| Oc1nncc(N2CCN(CC(O)c3ccc(Cl)c(Cl)c3)CC2)c1Cl (configuration not stated) | 3 | – | – |
| Cn1c(=O)c2nc[nH]c2n(C)c1=O.O [THEOPHYLLINE] | – | 4 | 55 |
| CC(=O)Nc1ccc(C(O)CN2CCN(c3ccc(O)nn3)CC2)cc1Cl (configuration not stated) | 23 | – | – |
| Nc1c(Cl)cc(C(O)CN2CCN(CCn3nc(Cl)ccc3=O)CC2)cc1Cl (configuration not stated) | 22 | – | – |
| CC(=O)Nc1ccc(C(O)CN2CCN(c3cnnc(O)c3Cl)CC2)cc1Cl (configuration not stated) | 4 | – | – |
| Nc1c(Cl)cc(C(O)CN2CCN(c3cnnc(O)c3Cl)CC2)cc1Cl (configuration not stated) | 19 | – | – |
